≈ marks a conversion by molar mass, not a printed value. Where “and” joins values, the source holds several entries; their conditions need not be identical. Identical values can stand only once. Like-named read-outs stand apart in the source and are kept apart here.
Tests used:
Mtb H37Rv [1] = test: C48 biotin deficient TB efficacy study; format: in vivo, BALB/c mice; details: 25mg/kg
M. bovis 0AF2122 = test: microbe, parasite or virus in culture; format: cell-based; details: Mycobacterium tuberculosis variant bovis
M. africanum = test: MIC screening against M. africanum; format: cell-based; details: Mycobacterium tuberculosis, MTBC
Mtb H37Rv [2] = format: in vivo, BALB/c mice; details: for bacterial burden per mouse, Fig. 5B: 10 mg/kg
BioA = BioA (Mycobacterium tuberculosis, UniProt P9WQ81); test: BioA inhibition assay (coupled BioA/BioD fluorescence displacement, IC50); format: biochemical; details: 50 nM BioA
Mtb H37Rv [3] = test: microbe, parasite or virus in culture; format: cell-based, Mycobacterium tuberculosis; details: biotin-free medium; for MIC50: Mycobacterium tuberculosis, H37RV
in vivo = details: female, CD-1, mouse; for Vd / clearance / half-life: iv; for AUC(0-inf) / bioavailability: po, 25 mg/kg
[4] = p.o. 25 mg/kg, CD-1 mice
[5] = day 7 (values identical to Control: baseline)

BioA, sequence (P9WQ81 whole entry, looked up): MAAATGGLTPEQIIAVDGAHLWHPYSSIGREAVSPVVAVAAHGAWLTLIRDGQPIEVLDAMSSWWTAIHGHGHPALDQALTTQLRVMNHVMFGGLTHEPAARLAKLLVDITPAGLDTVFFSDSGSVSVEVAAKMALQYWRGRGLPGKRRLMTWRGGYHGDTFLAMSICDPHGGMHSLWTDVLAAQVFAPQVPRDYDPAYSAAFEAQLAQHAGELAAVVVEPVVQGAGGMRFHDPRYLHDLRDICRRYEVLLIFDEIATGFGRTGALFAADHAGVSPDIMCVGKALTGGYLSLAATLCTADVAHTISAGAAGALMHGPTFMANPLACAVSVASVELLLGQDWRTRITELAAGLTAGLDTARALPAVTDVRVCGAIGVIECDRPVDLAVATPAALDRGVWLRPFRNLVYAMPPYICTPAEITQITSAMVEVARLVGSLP

With NNC(=O)c1ccncc1 [INH, isoniazid, reference compound] the “bacterial burden per mouse, Fig. 5C” value (Mtb H37Rv [1]; [5]) was 360 and 1090 and 400 and 320 and 700 and 200, the “bacterial burden per mouse, Fig. 5D (second organ, not given)” value (Mtb H37Rv [1]; [5]) was 1 and the “bacterial burden per mouse, Fig. 5D (second organ, not given)” value (Mtb H37Rv [1]; day 21) was 1. The “bacterial burden per mouse, Fig. 5C” value (Mtb H37Rv [1]; day 28) was 1 and the “bacterial burden per mouse, Fig. 5D (second organ, not given)” value (Mtb H37Rv [1]; day 28) was 1.

Compound CC(=O)NC[C@H]1CN(c2ccc(N3CCOCC3)c(F)c2)C(=O)O1 [Linezolid, reference compound] has an MIC (M. bovis 0AF2122) of 1.56 µM (≈ 0.526 µg/mL) and an MIC (M. africanum) of 1.56 µM (≈ 0.526 µg/mL).

In the case of CO[C@H]1/C=C/O[C@@]2(C)Oc3c(C)c(O)c4c(O)c(c(/C=N/N5CCN(C)CC5)c(O)c4c3C2=O)NC(=O)/C(C)=C\C=C\[C@H](C)[C@H](O)[C@@H](C)[C@@H](O)[C@@H](C)[C@H](OC(C)=O)[C@@H]1C [Rifampicin, rifampicin, reference compound], the “bacterial burden per mouse, Fig. 5B” value (Mtb H37Rv [2]; day 14 (values identical to Vehicle Control: baseline)) is reported as 24500 and 14500 and 16500 and 43500 and 12750, the “bacterial burden per mouse, Fig. 5B” value (Mtb H37Rv [2]; day 28) is reported as 8250 and 7500 and 19750 and 6250 and 14250 and the “bacterial burden per mouse, Fig. 5B” value (Mtb H37Rv [2]; day 42) is reported as 2875 and 750 and 950 and 2450 and 2025. For the same compound, the “spleen CFU” value (Mtb H37Rv [2]; Rifampicin 10mg/kg p.o., Day 42, standard acute model, BALB/c, per mouse) was 0 CFU.

In the case of O=C1CCc2cc(N3CCN(C(=O)c4ccc(F)c(Br)c4)CC3)ccc21 [C21], the IC50 (BioA) is reported as 81 nM, the activity (BioA; C21 1.58114 nM) is reported as 106% and the activity at 0.00158114 µM (BioA; C21 1.58114 nM) is reported as 106%. The activity (BioA; C21 5 nM) was 98% and 96.4%, the activity at 0.005 µM (BioA; C21 5 nM) was 102% and the activity (BioA; C21 15.8114 nM) was 91.7% and 90.1%. For the same compound, the activity at 0.0158114 µM (BioA; C21 15.8114 nM) was 91.3%, the activity (BioA; C21 50 nM) was 59.9% and 51.5% and the activity at 0.05 µM (BioA; C21 50 nM) was 59.5%. The activity (BioA; C21 158.114 nM) was 31.6% and 29.9%, the activity at 0.158114 µM (BioA; C21 158.114 nM) was 32% and the activity (BioA; C21 500 nM) was 25%. For the same compound, the activity at 0.5 µM (BioA; C21 500 nM) was 25.1%, the activity (BioA; C21 1581.14 nM) was 18.2% and 16.8% and the activity at 1.58114 µM (BioA; C21 1581.14 nM) was 19.4%. For the same compound, the activity (BioA; C21 5000 nM) was 7.65% and 7.4%, the activity at 5 µM (BioA; C21 5000 nM) was 8.48% and the MIC50 (Mtb H37Rv [3]) was 1.9 µM (≈ 0.793 µg/mL). For the same compound, the “increase in potency against Mtb versus 6” value (Mtb H37Rv [3]) was 6 fold, the Vd (in vivo) was 0.37 L/kg and the clearance (in vivo) was 5.3 mL/min/kg. It also gave a half-life (in vivo) of 49.2 min, an AUC(0-inf) (in vivo) of 108000 ng·h/mL and a bioavailability (in vivo) of over 100%.

Work on CC(=O)c1ccc(N2CCN(C(=O)c3ccc4c(c3)OCO4)CC2)cc1 [compound 6] yielded an IC50 (BioA) of 110 nM, an MIC50 (Mtb H37Rv [3]) of 12 µM (≈ 4.23 µg/mL) and a plasma concentration ([4]; 0 h) of 0. For the same compound, the plasma concentration ([4]; 3 h, 25 mg/kg) was 32.3 and 18.2 and 24.6, the plasma concentration ([4]; 24 h) was 1 and the Vd (in vivo) was 0.54 L/kg. For the same compound, the clearance (in vivo) was 30.6 mL/min/kg, the half-life (in vivo) was 12 min and the AUC(0-inf) (in vivo) was 460 ng·h/mL. For the same compound, the bioavailability (in vivo) was 3.4%.
